The values below come from patent publication US9504676B2, “Molecules inhibiting a metabolic pathway involving the Syk protein tyrosine kinase and method for identifying said molecules” (CENTRE NATIONAL DE LA RECHERCHE SCIENTIFIQUE, priority 2008, dated 2016).

In this assay the test system is Spleen B lymphocyte cells. The assay can be described thus: In vitro B lymphocyte proliferation induced by anti-IgM. Format: cell-based, BALB/c mice. How it is done: • 1) Chemical products and antibodies. A chemical bank of 3000 molecules (a varied subset) was acquired from ChemBridge, Inc. (San Diego, Calif.). Stocks of solutions of small molecules were prepared at a rate of 10 mM in DMSO (dimethylsulphoxide), except for C-13 (methyl 2-{5-[(3-benzyl-4-oxo-2-thioxo-1,3-thiazolidin-5-ylidene)methyl]-2-furyl}benzoate, ChemBridge ID No. 6197026) prepared in DMF (dimethylformamide). Unless specified otherwise, all the reagents were supplied by Sigma. Dinitrophenyl (DNP) hapten was acquired from Calbiochem. Sepharose GammaBind G and all the secondary antibodies were supplied by GE Health Amersham Biosciences. […] The binding of G4G11 with Syk was assessed by adding the 9E10 monoclonal antibody conjugated with HRP detecting the amino acid sequence EQKLISEEDLN of human c-myc protein located at the C-terminal end of the scFv fragment. To generate Syk mutants, targeted mutagenesis was used on GST:Syk 6-242 protein and the binding of G4G11 with the mutants was assessed in the presence of 5 μM of C-13. • 3) Cells, culture conditions and functional tests. […] The level of β-hexosaminidase released was measured 10 min later and the TNF-α titration was performed by means of a cytotoxicity test on L929 cells as described previously^10, 3 hours after stimulation. […]

As to `COC(=O)c1ccccc1-c1ccc(/C=C2/SC(=S)N(Cc3ccccc3)C2=O)o1` [Molecule C-13, methyl 2-{5-[(3-benzyl-4-oxo-2-thioxo-1,3-thiazolidin-5-ylidene)methyl]-2-furyl}benzoate], the “BCR-dependent B lymphocyte in vitro proliferation” value is “inhibited in a dose-dependent fashion”.
